SMILES strings stand for the structures.

The term viability denotes a read-out of living cells in per cent, often relative to untreated cells.

A short description of this data set: MTT colorimetric assay, dose response, cell viability. The format is cell-based. Particulars: human, HaCat cells, untreated = 100. As for the experimental part:
An MTT colorimetric assay (HaCat Cells) dose response experiment was conducted to analyze cell viability, or the percentage of cells present after treatment. Particularly, the MTT colorimetric assay was conducted to determine cell viability of the anhydrous 2:1 urea to taurine ionic liquid (2) of Example 1 in comparison to taurine. The HaCat Cells were 60-70% confluent, and a PBS buffer was used for serial volumetric dilutions. The results of the MTT colorimetric assay are summarized in Table 6, and highlight the effectiveness of the ionic liquid form. Cell viability greater than 100% indicates cell growth or proliferation, and cell viability less than 100% indicates cell death.

Regarding `NCCS(=O)(=O)O` [Taurine, 2-aminoethanesulfonic acid], where the note is “concentration of taurine 0.00001 w/w %”, the viability at 1e-05 w/w % was 137%. Further, the viability at 0.0001 w/w % (concentration of taurine 0.00010 w/w %) worked out at 120%. For the same molecule, the viability at 0.001 w/w % (concentration of taurine 0.00100 w/w %) worked out at 141%. In addition, the viability at 0.01 w/w % (concentration of taurine 0.01000 w/w %) came out at 147%. Besides, the viability at 0.1 w/w % (concentration of taurine 0.10000 w/w %) is 99%.

These data come from US11111463B2, “Solid cleansing compositions with taurine and methods thereof” (Colgate-Palmolive Company, priority 2016, dated 2021).
